In ChEMBL document CHEMBL5653615 (J Biol Chem, 2013):

Columns and labels:
[1] = biological target: T1, Interleukin-1 receptor-associated kinase 4 (Homo sapiens) (UniProt Q9NWZ3); assay: Inhibition of human IRAK4 at 1.82 nM by HotSpot assay relative to control
T1 sequence (whole entry): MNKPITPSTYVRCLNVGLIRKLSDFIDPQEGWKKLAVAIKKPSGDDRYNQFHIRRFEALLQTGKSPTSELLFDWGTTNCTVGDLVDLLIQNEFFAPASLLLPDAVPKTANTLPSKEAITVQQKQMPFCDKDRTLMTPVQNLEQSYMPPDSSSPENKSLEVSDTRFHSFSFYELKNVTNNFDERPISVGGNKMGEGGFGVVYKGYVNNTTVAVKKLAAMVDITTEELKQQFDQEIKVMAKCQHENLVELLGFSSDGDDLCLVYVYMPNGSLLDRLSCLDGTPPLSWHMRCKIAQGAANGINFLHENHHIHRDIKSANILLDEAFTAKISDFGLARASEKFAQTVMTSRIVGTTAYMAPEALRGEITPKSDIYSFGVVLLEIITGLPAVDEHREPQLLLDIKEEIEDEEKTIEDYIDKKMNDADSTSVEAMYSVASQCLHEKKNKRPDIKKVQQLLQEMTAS

[2] = biological target: Protein-tyrosine kinase 2-beta (Homo sapiens) (UniProt Q14289); assay: Inhibition of human PYK2 at 1.82 nM by HotSpot assay relative to control
[3] = biological target: T2, Beta-adrenergic receptor kinase 1 (Homo sapiens) (UniProt P25098); assay: Inhibition of human GRK2 at 1.82 nM by HotSpot assay relative to control
T2 sequence (whole entry): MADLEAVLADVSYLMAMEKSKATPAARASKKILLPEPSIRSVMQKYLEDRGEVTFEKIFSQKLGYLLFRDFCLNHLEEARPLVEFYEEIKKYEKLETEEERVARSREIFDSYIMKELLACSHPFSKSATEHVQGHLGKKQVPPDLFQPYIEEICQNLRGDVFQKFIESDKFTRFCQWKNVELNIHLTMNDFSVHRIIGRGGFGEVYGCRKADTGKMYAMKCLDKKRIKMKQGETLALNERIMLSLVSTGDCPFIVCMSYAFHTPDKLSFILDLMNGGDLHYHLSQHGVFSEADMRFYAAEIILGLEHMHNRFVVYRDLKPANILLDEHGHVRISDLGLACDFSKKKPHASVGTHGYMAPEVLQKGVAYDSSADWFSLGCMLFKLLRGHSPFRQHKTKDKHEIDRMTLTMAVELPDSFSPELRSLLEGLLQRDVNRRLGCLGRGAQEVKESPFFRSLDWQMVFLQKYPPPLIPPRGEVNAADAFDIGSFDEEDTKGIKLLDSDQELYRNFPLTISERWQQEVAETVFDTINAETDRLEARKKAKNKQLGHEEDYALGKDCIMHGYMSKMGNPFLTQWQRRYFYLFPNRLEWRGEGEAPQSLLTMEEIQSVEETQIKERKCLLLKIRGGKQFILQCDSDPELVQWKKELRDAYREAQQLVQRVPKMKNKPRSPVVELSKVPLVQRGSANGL

[4] = biological target: Mitogen-activated protein kinase kinase kinase 9 (Homo sapiens) (UniProt P80192); assay: Inhibition of human MAP3K9 at 18.6 nM by HotSpot assay relative to control
[5] = biological target: T3, Aurora kinase C (Homo sapiens) (UniProt Q9UQB9); assay: Inhibition of human Aurora C at 18.6 nM by HotSpot assay relative to control
T3 sequence (whole entry): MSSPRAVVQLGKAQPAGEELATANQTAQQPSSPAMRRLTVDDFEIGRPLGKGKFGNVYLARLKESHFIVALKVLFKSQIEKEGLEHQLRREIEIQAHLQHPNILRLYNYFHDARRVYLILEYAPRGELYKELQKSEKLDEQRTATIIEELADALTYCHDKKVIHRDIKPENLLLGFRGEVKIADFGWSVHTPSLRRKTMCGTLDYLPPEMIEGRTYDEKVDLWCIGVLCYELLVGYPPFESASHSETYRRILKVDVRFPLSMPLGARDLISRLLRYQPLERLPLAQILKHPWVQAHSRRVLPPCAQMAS

[6] = biological target: SRSF protein kinase 2 (Homo sapiens) (UniProt P78362); assay: Inhibition of human SRPK2 at 18.6 nM by HotSpot assay relative to control
[7] = biological target: Serine/threonine-protein kinase PAK 3 (Homo sapiens) (UniProt O75914); assay: Inhibition of human PAK3 at 18.6 nM by HotSpot assay relative to control
[8] = biological target: T4, Inhibitor of nuclear factor kappa-B kinase subunit beta (Homo sapiens) (UniProt O14920); assay: Inhibition of human IKKb at 500 nM by HotSpot assay relative to control
T4 sequence (whole entry): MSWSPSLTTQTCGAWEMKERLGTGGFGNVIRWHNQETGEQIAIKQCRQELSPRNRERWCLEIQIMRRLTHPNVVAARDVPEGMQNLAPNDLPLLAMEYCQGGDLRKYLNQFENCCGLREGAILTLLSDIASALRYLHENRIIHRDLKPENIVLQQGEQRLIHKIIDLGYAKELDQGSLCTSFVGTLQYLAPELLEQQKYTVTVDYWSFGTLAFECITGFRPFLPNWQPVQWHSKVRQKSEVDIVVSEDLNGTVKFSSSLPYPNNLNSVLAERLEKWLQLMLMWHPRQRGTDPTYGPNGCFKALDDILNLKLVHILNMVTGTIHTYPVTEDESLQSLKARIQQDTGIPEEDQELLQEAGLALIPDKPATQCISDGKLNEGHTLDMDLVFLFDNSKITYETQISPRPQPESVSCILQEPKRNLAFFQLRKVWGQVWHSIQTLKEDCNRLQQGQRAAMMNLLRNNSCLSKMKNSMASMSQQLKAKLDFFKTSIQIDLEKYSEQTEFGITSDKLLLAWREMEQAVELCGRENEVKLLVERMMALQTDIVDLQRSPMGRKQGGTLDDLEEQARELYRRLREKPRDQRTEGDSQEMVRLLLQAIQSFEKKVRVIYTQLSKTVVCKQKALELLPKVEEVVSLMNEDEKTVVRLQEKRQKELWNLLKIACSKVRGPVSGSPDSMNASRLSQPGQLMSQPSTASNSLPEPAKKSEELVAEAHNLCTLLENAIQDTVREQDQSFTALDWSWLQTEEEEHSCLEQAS

SRSF protein kinase 2 (Homo sapiens), sequence (P78362 whole entry, looked up): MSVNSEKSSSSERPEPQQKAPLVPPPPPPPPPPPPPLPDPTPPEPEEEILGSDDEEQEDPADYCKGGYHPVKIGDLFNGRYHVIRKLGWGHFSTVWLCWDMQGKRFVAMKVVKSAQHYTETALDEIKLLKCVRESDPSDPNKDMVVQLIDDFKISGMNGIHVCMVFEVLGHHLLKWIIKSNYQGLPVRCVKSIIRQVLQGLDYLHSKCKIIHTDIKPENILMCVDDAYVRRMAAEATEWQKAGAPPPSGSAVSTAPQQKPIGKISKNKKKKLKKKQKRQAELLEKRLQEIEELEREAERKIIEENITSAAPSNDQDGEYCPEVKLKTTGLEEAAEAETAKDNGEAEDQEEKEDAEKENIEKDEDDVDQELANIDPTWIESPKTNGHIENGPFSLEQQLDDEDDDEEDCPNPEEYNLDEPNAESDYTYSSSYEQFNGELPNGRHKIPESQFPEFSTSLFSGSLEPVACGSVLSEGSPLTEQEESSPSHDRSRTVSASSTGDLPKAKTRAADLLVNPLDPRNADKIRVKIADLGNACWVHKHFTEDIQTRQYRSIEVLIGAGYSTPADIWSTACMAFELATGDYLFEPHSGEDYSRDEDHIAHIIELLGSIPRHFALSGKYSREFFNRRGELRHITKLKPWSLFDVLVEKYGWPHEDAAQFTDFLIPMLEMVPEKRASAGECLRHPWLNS
Mitogen-activated protein kinase kinase kinase 9 (Homo sapiens), sequence (P80192 whole entry, looked up): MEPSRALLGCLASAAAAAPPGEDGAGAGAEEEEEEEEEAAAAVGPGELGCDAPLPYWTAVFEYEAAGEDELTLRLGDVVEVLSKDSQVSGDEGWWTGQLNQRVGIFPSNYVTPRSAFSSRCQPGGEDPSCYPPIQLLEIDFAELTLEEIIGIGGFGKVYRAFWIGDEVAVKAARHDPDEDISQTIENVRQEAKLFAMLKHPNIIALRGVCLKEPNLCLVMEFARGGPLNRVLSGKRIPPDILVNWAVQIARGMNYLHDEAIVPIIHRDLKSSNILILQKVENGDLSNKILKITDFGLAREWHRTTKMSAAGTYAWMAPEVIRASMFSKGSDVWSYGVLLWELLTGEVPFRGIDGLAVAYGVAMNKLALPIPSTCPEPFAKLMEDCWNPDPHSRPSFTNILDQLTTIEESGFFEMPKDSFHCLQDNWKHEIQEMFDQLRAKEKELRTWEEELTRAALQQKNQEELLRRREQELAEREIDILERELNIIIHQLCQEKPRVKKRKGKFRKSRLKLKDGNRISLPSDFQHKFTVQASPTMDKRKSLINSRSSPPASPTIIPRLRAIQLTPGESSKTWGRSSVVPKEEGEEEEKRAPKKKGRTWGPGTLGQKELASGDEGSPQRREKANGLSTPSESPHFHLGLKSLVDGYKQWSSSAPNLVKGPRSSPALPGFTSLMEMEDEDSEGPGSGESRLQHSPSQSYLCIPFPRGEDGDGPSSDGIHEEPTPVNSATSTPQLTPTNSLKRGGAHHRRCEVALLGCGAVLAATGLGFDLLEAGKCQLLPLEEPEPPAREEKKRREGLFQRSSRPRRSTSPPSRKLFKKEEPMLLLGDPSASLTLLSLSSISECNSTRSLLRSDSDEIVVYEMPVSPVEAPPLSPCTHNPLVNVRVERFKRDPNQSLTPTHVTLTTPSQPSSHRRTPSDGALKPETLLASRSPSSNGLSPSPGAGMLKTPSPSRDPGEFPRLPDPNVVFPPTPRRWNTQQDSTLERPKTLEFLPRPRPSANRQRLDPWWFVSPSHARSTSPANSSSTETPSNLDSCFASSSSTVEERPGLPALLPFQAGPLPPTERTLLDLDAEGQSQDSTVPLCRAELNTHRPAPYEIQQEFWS
Protein-tyrosine kinase 2-beta (Homo sapiens), sequence (Q14289 whole entry, looked up): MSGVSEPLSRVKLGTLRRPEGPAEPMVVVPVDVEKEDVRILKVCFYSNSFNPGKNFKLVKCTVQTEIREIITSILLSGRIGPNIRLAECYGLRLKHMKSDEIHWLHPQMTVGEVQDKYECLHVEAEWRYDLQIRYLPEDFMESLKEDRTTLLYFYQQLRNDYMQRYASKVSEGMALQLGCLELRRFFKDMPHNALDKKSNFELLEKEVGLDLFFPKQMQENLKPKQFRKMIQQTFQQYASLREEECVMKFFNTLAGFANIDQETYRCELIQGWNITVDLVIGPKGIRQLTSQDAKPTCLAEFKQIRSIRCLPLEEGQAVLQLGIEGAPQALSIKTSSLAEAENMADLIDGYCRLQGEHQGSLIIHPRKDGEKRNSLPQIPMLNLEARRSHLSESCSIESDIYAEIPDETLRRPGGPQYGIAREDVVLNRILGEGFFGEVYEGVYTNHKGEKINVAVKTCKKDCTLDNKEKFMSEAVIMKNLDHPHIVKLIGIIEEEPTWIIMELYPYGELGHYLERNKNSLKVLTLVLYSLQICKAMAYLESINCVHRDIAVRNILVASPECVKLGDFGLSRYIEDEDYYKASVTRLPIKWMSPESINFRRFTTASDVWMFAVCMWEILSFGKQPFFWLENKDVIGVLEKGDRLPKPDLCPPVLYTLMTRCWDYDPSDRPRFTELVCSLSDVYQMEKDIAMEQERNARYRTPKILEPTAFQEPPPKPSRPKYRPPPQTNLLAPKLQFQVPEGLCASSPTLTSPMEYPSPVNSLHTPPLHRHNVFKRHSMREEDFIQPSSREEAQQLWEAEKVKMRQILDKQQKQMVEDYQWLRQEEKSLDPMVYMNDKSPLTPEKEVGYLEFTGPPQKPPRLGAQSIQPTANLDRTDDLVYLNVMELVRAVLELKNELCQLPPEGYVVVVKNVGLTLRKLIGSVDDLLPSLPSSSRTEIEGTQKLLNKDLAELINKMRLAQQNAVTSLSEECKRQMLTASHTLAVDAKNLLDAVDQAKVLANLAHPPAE
Serine/threonine-protein kinase PAK 3 (Homo sapiens), sequence (O75914 whole entry, looked up): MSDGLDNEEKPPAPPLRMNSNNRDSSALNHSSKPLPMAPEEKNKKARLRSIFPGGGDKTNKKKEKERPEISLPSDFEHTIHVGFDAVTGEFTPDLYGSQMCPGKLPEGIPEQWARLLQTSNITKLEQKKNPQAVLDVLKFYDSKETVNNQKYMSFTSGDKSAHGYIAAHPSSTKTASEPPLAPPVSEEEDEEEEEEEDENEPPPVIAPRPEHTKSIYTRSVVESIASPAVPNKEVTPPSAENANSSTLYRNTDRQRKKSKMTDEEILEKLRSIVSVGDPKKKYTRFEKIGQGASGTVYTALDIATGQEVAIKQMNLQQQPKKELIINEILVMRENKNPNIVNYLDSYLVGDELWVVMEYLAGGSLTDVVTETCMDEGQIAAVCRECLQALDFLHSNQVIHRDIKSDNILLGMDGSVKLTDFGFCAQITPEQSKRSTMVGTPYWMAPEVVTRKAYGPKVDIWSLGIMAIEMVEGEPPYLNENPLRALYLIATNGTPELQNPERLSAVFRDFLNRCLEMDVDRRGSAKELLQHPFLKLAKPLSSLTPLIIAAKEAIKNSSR

C[C@@]1(C(=O)Nc2ccc(F)nc2)CCCN1c1nc(Nc2cc(C3CC3)n[nH]2)c2cccn2n1
inhibition [1]: -4.67%
inhibition [2]: 1.81%
inhibition [3]: -0.25%

C[C@]1(O)C[C@@H](c2nc(-c3ccc4ccc(-c5ccccc5)nc4c3)c3c(N)nccn32)C1
inhibition [4]: -2.33%
inhibition [5]: -7.85%
inhibition [6]: -1.64%
inhibition [7]: 2.16%

Oc1n[nH]c2nnc(-c3c(-c4ccccc4)nn4ccccc34)cc12
inhibition [8]: -0.37%
